{"source": "patent US8106062B1", "about": "“Calcium channel blockers” (Diakron Pharmaceuticals, Inc., priority 2003, dated 2012)", "key": {"[1]": {"target": "T1, T-type calcium channels (α1G) (Homo sapiens, UniProt O43497)", "T1 construct": "expressed in transfected cells", "T1 sequence (O43497 whole entry)": "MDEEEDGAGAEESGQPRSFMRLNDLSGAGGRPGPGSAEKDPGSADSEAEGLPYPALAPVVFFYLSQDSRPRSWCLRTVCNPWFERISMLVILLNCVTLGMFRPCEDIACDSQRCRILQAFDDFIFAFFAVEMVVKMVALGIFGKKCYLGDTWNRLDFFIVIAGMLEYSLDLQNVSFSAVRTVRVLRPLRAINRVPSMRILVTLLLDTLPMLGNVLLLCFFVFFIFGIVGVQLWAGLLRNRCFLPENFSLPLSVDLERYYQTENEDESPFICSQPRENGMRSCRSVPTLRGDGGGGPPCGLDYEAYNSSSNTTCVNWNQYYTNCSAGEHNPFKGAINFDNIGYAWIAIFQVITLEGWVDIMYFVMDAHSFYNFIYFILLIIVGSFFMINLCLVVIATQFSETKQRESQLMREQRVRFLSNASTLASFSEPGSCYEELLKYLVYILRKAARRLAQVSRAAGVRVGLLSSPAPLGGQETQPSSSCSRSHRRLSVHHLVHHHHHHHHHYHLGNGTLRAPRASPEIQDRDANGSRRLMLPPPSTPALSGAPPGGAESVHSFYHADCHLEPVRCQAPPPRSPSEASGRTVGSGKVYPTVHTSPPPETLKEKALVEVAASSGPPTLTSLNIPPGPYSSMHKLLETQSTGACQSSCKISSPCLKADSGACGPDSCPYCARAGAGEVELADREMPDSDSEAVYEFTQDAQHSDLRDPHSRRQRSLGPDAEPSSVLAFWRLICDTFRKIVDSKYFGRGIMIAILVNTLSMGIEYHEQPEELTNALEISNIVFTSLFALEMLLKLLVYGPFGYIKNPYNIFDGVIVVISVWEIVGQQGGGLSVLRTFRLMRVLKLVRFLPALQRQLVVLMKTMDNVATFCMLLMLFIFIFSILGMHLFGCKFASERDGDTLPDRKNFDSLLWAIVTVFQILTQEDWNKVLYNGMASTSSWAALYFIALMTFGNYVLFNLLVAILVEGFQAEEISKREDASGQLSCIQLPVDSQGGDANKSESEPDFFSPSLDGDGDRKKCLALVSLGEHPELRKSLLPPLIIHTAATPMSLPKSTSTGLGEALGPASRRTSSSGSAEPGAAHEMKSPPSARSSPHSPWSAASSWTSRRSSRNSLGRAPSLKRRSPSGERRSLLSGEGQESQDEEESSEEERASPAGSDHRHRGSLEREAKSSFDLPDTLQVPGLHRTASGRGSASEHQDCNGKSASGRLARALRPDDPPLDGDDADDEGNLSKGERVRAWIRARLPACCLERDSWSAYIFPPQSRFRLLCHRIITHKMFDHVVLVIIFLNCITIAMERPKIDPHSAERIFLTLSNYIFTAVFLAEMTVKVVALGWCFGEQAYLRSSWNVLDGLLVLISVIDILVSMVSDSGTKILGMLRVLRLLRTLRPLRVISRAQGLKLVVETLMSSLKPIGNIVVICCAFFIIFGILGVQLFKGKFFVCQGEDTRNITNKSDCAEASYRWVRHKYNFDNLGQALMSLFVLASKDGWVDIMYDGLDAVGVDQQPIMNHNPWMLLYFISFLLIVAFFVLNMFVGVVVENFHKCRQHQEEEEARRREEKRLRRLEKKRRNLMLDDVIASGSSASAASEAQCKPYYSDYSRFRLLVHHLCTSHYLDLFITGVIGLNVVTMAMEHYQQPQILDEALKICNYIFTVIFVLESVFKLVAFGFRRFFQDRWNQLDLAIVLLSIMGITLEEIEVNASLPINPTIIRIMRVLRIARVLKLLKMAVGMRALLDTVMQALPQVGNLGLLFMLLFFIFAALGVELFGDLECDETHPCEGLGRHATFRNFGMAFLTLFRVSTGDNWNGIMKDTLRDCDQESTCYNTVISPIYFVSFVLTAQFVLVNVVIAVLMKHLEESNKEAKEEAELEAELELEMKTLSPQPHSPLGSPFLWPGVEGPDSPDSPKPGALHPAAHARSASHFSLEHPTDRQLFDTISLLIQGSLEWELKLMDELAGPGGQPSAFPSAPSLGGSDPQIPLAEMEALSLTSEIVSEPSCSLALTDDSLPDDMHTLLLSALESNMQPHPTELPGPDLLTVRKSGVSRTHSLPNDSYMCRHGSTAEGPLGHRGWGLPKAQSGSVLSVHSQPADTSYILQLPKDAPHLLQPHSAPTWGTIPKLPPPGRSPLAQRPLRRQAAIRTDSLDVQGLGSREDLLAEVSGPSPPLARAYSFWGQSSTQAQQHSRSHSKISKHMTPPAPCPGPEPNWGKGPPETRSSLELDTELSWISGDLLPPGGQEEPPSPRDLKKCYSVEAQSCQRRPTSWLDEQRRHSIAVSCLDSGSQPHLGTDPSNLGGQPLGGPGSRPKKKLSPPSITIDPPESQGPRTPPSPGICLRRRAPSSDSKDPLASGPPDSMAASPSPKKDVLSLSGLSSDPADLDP", "experiment": "Patch-clamp assay for T-channel blockage in HEK cells", "format": "cell-based", "conditions": "time course of T-channel blockage, 500 nM and 1 uM, preliminary numbers", "description": "Specifically, individual HEK cells were tested in vitro using a patch-clamp assay for T-channel blockage. Tests were performed at concentrations of 500 nM and 1 uM, and the time course of the blockage was followed for a period of several minutes.\nIn the past, patch clamp assays for T-channel activity would measure inhibition of calcium-ion-mediated current over the course of only a few minutes, e.g., 2, 3, or 5 minutes. […] The assays described herein can be used to differentiate between conventional-type T-channel blockers, which usually show a time constant of blockage of a few seconds, and the long-acting T-channel blockers, which show time constants between 1 minute and 2, 4, 5, 10 or more minutes. It is the latter group of compounds that is particularly interesting and useful in the present invention.\nT-type calcium channels (α1G) were stably expressed in HEK293 cells and maintained at 37° C. in DMEM. Cells were released from dishes using trypsin and EGTA or Accutase and studied within 4 hours of isolation. Individual cells were placed on the stage of an inverted microscope and patched with pipettes pulled from aluminasilicate glass capillary tubes, which had resistances of 0.8-1.5 Mohm. Currents were recorded using an Axopatch 200 (Axon Instruments, Inc.) and pClamp data acquisition software (8.1). The pipette solution contained (in mM): KCl 130, EGTA 11, HEPES 10, MgATP 5, pH=7.4. The bath solution contained (in mM): NaCl 140, CaCl2 1, HEPES 10, pH=7.4. Test compounds were diluted into bath solution to the desired concentration (100 nM-10 μM) from a stock solutions (3 or 10 mM in DMSO). Current measurements were made at 20-23° C. Cells were held at −110 mV in order to maximize occupancy in the closed state and depolarized for 100 ms to various potentials. Currents were capacity corrected using 16-64 subthreshold responses (voltage steps of 10 or 20 mV) and leak subtracted, based on linear interpolation between the current at the holding potential and 0 mV. Cells were moved from a control chamber to a chamber with test compound and the effect of the drug was assessed using a voltage clamp protocol that stepped to −30 mV for 100 ms from a holding potential of −110 mV once every 5 s. After each 10-13 minutes, the train protocol was interrupted and a full current voltage relationship obtained. In general for each compound, four cells were studied for a minimum of 13 minutes, two in drug at 500 nM and two at 1 μM. In some cases other concentrations were also studied. Data were analyzed using Matlab (Mathworks, Natick, Mass.). Drug efficacy was estimated using the relationship: Blocked Fraction=[Drug]/(IC50+[Drug])\nThe time course of block by drug was fit to a single exponential function: Peak Current=A*exp(−t/τ)+B where A is the initial amplitude of the current, B the final level, t the time after the cell was exposed to drug, and τ, the time constant, i.e. the time it took for the current to be reduced to within 1/e of its final value, B. In general, modification τs are influenced both by drug on rate and off rate, although washout was achievable for only one compound, so off rates are so slow (small) that T can be taken to essentially represent 1/kon. For some compounds despite the presence of the drug in the chamber, modification occurred with a delay. This was quantified from the time modification was first observed. […]"}, "[2]": {"system": "spontaneously hypertensive rats", "conditions": "30 mg/Kg oral, cited from earlier work"}, "[3]": {"system": "spontaneously hypertensive rats", "experiment": "Systolic blood pressure (tail cuff) in spontaneously hypertensive rats after IV tail injection", "format": "in vivo, rat", "conditions": "SHR", "description": "In addition to the referenced in vitro studies, in vivo studies have also been conducted. The in vivo hypertension model used here involves administration of compound to spontaneously hypertensive rats through IV tail injection of compound. Systolic blood pressure is then measured using a tail cuff.\nFifteen male spontaneously hypertensive rats (SHR) were used in these studies. The animals were 12 weeks old at arrival and 15 weeks old at the start of study. The animals were divided into five groups, with three animals in each group. The starting, baseline systolic blood pressure for all animals included in the study was 190-220 mmHg. The animals were housed in contact bedding. They were fed Purina 5008. Six days after arrival, the animals were trained in the blood pressure apparatus for four days before the start of the study.\nCompounds were administered to the animals by tail vein injection. Dose levels were 0.5 mL. In each study, one group of animals served as control, while the others were injected with a dosage of a compound.\nThe study was conducted using the schedule set forth below: […]"}, "[4]": {"conditions": "multiple dose study, three injections spaced about 25 hours apart, FIG. 2"}, "[5]": {"conditions": "single dose 20 mg/Kg, IV tail injection, FIG. 1"}}}
{"compound": "3,6-dihydro-4-methyl-6-[2-ethoxy-6-pentadecylphenyl]-2-oxo-1,5-(2H)-pyrimidinedicarboxylic acid 1-ethyl 5-isopropyl diester [PPK35]", "values": [{"measurement": "Time constant", "setting": "[1]", "value": 10, "unit": "min"}]}
{"compound": "COCC(=O)O[C@]1(CCN(C)CCCc2nc3ccccc3[nH]2)CCc2cc(F)ccc2[C@@H]1C(C)C", "note": "[Mibefradil]", "values": [{"measurement": "systolic blood pressure drop in the first 5 hours", "setting": "[2]; FIG. 1", "value": "about 85 mmHg"}, {"measurement": "systolic blood pressure recovery by the end of 24 hours", "setting": "[2]; FIG. 1", "value": "about 45 mmHg"}, {"measurement": "rapid drop of blood pressure", "setting": "[2]; FIG. 2", "value": 85, "unit": "mmHg"}, {"measurement": "recovery of blood pressure within 24 hours of administration", "setting": "[2]; FIG. 2", "value": "more than 50%"}]}
{"compound": "CCCCCCCCCCCCCCCc1cccc(OC(C)C)c1C1C(C(=O)OC)=C(C)NC(C)=C1C(=O)OC", "note": "[PPK5, dimethyl 1,4-dihydro-4-(2′-isopropoxy-6′-pentadecylphenyl)-2,6-dimethyl-3,5-pyridine dicarboxylate]", "values": [{"measurement": "Time constant", "setting": "[1]", "value": 8, "unit": "min"}, {"measurement": "additional blood pressure drop after the second injection", "setting": "[3]; [4]", "value": "~12", "unit": "mmHg"}, {"measurement": "blood pressure drop after first injection", "setting": "[3]; [4]", "value": "about 55 mmHg"}, {"measurement": "time systolic pressure remained at the reduced level", "setting": "[3]; single dose 20 mg/Kg, IV tail injection", "value": "> 24", "unit": "h"}, {"measurement": "systolic pressure drop in the first 5 hours", "setting": "[3]; [5]", "value": "about 48 mmHg"}, {"measurement": "systolic pressure drop in the first 10 hours", "setting": "[3]; [5]", "value": "about 55 mmHg"}]}
{"compound": "CCCCCCCCCCCCCCCc1cccc(OC)c1C1NC(=O)NC(C)=C1C(=O)OCC", "note": "(centres unmarked) [PPK22, 5-ethoxycarbonyl-4-(2-methoxy-6-pentadecylphenyl)-6-methyl-3,4-dihydropyrimidin-2(1H)-one]", "values": [{"measurement": "Time constant", "setting": "[1]", "value": 1, "unit": "min"}]}
{"compound": "CCCCCCCCCCCCCCCc1cccc(OCC)c1C1C(C(=O)OCC)=C(C)NC(=S)N1C(=O)CC", "note": "(centres unmarked) [PPK50, 1,2,3,4-tetrahydro-6-methyl-4-[2-ethoxy-6-pentadecylphenyl]-3-(1-oxo-propyl)2-thioxo-5-pyrimidine carboxylic acid ethyl ester]", "values": [{"measurement": "Time constant", "setting": "[1]", "value": 10, "unit": "min"}]}
{"compound": "CCCCCCCCCCCCCCCc1cccc(OC(C)C)c1C1C(C(=O)OCC)=C(C)NC(=S)N1C(=O)CC", "note": "(centres unmarked) [PPK51, 1,2,3,4-tetrahydro-6-methyl-4-[2-isopropoxy-6-pentadecylphenyl]-3-(1-oxo-propyl)2-thioxo-5-pyrimidine carboxylic acid ethyl ester]", "values": [{"measurement": "Time constant", "setting": "[1]", "value": 13, "unit": "min"}]}
